Drawing on patent publication US9340590B2 (priority 2011, dated 2016), this text covers IC50 for seven compounds.

One experiment has as its target hNav1.3 (Homo sapiens, UniProt Q9NY46). As to the kind of experiment: cell-based. The conditions noted are these: IonWorks Quattro, read-out: IWQ Use Nav1.3. (The patch-clamp technique gives a direct electrical read-out from membranes.)
The target in a further experiment is hNav1.5 (Homo sapiens, UniProt Q14524). As to the kind of experiment: cell-based.
Where [1] appears, read: clamped to −110 mV, depolarized to −10 mV, 5 min after compound, n=2.
Setting [2] is: IonWorks Quattro, clamped to −110 mV, depolarized to −10 mV, 5 min after compound, n=2, read-out: IWQ Use Nav1.5.

The structures appear in SMILES notation. Where two headings read alike, the source gives them in different places. Positions of bridges follow the written chain, without caps; N, C: chain ends. Non-standard residues stand in square brackets, D forms with d. Residues, ends and D or L forms follow the SMILES beside them. 1Nal = N[C@@H](Cc1cccc2ccccc12)C(=O)O

hNav1.5, sequence (Q14524 whole entry, looked up): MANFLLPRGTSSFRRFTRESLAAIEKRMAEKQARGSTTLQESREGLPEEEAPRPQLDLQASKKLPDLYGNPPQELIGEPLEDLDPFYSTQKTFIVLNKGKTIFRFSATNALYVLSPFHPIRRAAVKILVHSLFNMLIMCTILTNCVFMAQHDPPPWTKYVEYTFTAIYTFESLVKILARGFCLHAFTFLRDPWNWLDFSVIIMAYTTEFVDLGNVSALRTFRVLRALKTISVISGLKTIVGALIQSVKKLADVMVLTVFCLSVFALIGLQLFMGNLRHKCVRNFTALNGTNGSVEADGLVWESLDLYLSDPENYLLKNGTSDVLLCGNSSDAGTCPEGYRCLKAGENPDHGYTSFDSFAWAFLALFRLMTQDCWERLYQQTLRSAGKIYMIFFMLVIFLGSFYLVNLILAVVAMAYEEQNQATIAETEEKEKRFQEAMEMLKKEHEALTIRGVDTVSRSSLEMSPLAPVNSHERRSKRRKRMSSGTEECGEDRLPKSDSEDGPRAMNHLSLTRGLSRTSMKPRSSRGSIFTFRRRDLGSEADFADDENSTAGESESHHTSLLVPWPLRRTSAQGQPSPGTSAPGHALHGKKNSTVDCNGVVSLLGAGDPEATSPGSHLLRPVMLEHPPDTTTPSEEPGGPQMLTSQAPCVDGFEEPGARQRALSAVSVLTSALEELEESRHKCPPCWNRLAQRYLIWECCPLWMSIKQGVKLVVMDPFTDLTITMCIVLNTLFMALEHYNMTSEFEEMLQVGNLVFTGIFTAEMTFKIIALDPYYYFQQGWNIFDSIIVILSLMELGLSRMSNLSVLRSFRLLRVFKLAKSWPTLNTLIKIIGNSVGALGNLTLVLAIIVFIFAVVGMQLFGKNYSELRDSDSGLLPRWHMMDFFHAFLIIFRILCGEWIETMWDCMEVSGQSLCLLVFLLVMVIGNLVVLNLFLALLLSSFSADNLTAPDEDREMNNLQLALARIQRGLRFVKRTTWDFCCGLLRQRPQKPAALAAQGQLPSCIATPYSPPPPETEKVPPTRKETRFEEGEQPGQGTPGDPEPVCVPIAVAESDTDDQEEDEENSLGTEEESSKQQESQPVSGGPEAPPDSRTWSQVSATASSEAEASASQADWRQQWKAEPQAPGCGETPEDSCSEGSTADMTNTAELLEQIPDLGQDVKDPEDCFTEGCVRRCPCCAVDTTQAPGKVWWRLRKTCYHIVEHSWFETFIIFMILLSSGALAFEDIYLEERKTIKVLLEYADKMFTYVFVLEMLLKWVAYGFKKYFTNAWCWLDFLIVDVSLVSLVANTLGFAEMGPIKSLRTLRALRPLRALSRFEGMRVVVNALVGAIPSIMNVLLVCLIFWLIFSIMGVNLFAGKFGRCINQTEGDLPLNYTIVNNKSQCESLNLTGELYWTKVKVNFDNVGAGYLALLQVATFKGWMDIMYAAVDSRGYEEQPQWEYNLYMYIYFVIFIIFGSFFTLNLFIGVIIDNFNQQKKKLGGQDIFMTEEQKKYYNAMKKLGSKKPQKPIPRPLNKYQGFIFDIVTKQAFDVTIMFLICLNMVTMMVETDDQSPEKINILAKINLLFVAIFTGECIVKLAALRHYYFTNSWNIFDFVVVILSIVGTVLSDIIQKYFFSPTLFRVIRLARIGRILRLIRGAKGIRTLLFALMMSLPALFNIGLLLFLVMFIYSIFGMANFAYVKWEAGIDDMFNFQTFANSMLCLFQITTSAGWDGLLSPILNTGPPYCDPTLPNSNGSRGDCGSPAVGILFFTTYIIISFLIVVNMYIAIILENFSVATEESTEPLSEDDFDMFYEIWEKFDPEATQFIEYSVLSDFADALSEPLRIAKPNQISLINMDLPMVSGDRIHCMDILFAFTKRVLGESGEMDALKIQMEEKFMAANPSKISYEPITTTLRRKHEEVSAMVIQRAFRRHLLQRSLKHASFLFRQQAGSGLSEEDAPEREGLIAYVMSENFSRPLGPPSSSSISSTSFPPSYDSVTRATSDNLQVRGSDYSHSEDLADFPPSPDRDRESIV
hNav1.3, sequence (Q9NY46 whole entry, looked up): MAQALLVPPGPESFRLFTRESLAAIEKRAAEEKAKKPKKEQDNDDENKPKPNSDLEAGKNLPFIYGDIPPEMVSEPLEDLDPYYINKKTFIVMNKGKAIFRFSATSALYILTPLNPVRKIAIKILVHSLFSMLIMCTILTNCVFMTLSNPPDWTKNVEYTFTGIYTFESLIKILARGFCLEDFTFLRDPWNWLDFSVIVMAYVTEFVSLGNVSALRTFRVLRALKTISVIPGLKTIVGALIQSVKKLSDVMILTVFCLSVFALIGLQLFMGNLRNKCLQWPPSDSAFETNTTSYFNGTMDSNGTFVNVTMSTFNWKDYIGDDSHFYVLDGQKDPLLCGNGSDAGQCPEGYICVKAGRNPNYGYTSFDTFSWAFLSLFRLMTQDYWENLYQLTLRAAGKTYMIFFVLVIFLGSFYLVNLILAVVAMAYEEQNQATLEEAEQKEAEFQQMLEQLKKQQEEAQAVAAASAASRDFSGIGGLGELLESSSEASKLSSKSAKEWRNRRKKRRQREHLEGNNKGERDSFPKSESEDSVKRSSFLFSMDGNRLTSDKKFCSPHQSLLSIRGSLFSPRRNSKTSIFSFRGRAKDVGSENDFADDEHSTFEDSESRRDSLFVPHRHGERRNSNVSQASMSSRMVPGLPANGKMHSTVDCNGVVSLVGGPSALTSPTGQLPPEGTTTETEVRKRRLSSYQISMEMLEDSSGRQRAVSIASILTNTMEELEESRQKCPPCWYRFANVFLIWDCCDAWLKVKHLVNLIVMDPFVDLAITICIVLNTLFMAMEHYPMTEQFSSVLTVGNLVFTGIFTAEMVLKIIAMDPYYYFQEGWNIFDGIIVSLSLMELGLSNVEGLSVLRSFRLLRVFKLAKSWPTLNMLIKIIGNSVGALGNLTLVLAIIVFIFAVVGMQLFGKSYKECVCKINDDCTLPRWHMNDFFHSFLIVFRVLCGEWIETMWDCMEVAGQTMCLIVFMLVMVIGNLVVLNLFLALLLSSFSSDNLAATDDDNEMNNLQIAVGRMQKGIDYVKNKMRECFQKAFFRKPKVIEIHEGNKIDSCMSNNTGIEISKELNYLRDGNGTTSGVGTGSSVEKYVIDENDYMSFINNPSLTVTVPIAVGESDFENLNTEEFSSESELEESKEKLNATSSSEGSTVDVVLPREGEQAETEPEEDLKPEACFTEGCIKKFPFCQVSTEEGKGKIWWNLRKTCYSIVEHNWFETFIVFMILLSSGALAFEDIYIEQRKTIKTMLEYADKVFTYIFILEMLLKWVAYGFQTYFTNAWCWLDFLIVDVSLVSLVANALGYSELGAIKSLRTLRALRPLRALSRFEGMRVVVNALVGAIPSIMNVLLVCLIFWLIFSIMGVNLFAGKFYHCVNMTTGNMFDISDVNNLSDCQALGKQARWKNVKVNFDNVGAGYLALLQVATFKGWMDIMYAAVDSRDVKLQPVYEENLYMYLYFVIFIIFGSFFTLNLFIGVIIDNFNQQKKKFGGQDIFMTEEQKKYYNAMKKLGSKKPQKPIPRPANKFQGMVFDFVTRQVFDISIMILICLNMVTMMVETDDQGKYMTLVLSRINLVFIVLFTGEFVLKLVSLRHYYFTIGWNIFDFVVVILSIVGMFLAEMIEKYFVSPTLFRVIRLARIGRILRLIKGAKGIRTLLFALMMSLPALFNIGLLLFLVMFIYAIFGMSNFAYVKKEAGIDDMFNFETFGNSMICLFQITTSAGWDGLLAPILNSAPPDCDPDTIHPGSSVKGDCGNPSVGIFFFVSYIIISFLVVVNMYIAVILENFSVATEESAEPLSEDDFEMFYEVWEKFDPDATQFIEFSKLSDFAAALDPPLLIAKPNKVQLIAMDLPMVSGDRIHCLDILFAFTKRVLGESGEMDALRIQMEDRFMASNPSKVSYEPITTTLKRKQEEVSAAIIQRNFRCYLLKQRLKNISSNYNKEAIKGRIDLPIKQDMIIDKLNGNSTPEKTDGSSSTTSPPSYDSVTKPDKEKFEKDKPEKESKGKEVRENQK

Turning to `CC[C@H](C)[C@@H]1NC(=O)[C@@H]2CSSC[C@@H]3NC(=O)[C@H](C(C)C)NC(=O)[C@H](CC(C)C)NC(=O)[C@H](CC(N)=O)NC(=O)[C@@H]4CCCN4C(=O)[C@H](CCCNC(=N)N)NC(=O)[C@H](CSSC[C@H](NC(=O)[C@@H](N)CCC(=O)O)C(=O)N[C@@H](CC(C)C)C(=O)NCC(=O)N[C@@H](Cc4ccccc4)C(=O)N[C@@H](CCSC)C(=O)N[C@@H](CCCNC(=N)N)C(=O)N[C@@H](CCCCN)C(=O)N2)NC(=O)[C@H](CSSC[C@@H](C(=O)N[C@@H](CCCCN)C(=O)N[C@@H](Cc2ccc(O)cc2)C(=O)N[C@H](C(=O)N[C@@H](Cc2ccccc2)C(N)=O)C(C)C)NC(=O)[C@H](Cc2c[nH]c4ccccc24)NC(=O)[C@H](CCCCN)NC(=O)[C@H](Cc2cnc[nH]2)NC(=O)[C@H]([C@@H](C)O)NC(=O)[C@H](CCCNC(=N)N)NC(=O)[C@H](CO)NC3=O)NC(=O)[C@H](CCCCN)NC(=O)[C@H](CC(=O)O)NC(=O)[C@H](CC(N)=O)NC(=O)[C@H](CC(=O)O)NC(=O)[C@@H]2CCCN2C1=O` [SEQ ID NO: 18] (H-ECLGFMRKCIPDNDKCCRPNLVCSRTHKWCKYVF-NH2; disulfide 2-17, 9-23, 16-30), the IC50 at hNav1.3 (setting [1]) came out at 0.15 µM; on hNav1.5 (setting [2]), 14.2 µM.

As to `CC[C@H](C)[C@@H]1NC(=O)[C@@H]2CSSC[C@@H]3NC(=O)[C@H](C(C)C)NC(=O)[C@H](CC(C)C)NC(=O)[C@H](CC(N)=O)NC(=O)[C@@H]4CCCN4C(=O)[C@H](CCCNC(=N)N)NC(=O)[C@H](CSSC[C@H](NC(=O)[C@H](C)N)C(=O)N[C@@H](CC(C)C)C(=O)NCC(=O)N[C@@H](Cc4ccccc4)C(=O)N[C@@H](CCSC)C(=O)N[C@@H](CCCNC(=N)N)C(=O)N[C@@H](CCCCN)C(=O)N2)NC(=O)[C@H](CSSC[C@@H](C(=O)N[C@@H](CCCCN)C(=O)N[C@@H](Cc2ccc(O)cc2)C(=O)N[C@H](C(=O)N[C@@H](Cc2ccccc2)C(N)=O)C(C)C)NC(=O)[C@H](Cc2c[nH]c4ccccc24)NC(=O)[C@H](CCCCN)NC(=O)[C@H](Cc2cnc[nH]2)NC(=O)[C@H]([C@@H](C)O)NC(=O)[C@H](CCCNC(=N)N)NC(=O)[C@H](CO)NC3=O)NC(=O)[C@H](CCCCN)NC(=O)[C@H](CC(=O)O)NC(=O)[C@H](CC(N)=O)NC(=O)[C@H](CC(=O)O)NC(=O)[C@@H]2CCCN2C1=O` [SEQ ID NO: 20] (H-ACLGFMRKCIPDNDKCCRPNLVCSRTHKWCKYVF-NH2; disulfide 2-17, 9-23, 16-30), the IC50 on hNav1.3 (setting [1]) came out at 0.08 µM; at hNav1.5 (setting [2]), 9.86 µM.

For the compound `CC[C@H](C)[C@@H]1NC(=O)[C@@H]2CSSC[C@@H]3NC(=O)[C@H](C(C)C)NC(=O)[C@H](CC(C)C)NC(=O)[C@H](CC(N)=O)NC(=O)[C@@H]4CCCN4C(=O)[C@H](CCCNC(=N)N)NC(=O)[C@H](CSSC[C@H](NC(=O)[C@@H](N)CC(=O)O)C(=O)N[C@@H](CC(C)C)C(=O)N[C@@H](CCC(=O)O)C(=O)N[C@@H](Cc4ccccc4)C(=O)N[C@@H](CCSC)C(=O)N[C@@H](CCCNC(=N)N)C(=O)N[C@@H](CCCCN)C(=O)N2)NC(=O)[C@H](CSSC[C@@H](C(=O)N[C@@H](CCCCN)C(=O)N[C@@H](Cc2ccc(O)cc2)C(=O)N[C@H](C(=O)N[C@@H](Cc2ccccc2)C(N)=O)C(C)C)NC(=O)[C@H](Cc2c[nH]c4ccccc24)NC(=O)[C@H](CCCCN)NC(=O)[C@H](Cc2cnc[nH]2)NC(=O)[C@H]([C@@H](C)O)NC(=O)[C@H](CCCNC(=N)N)NC(=O)[C@H](CO)NC3=O)NC(=O)[C@H](CCCCN)NC(=O)[C@H](CC(=O)O)NC(=O)[C@H](CC(N)=O)NC(=O)[C@H](CC(=O)O)NC(=O)[C@@H]2CCCN2C1=O` [SEQ ID NO: 24] (H-DCLEFMRKCIPDNDKCCRPNLVCSRTHKWCKYVF-NH2; disulfide 2-17, 9-23, 16-30), the IC50 at hNav1.3 (setting [1]) stood at 1.33 µM; at hNav1.5 (IWQ Use Nav1.5) it was 17.6 µM.

On to `CC[C@H](C)[C@@H]1NC(=O)[C@@H]2CSSC[C@@H]3NC(=O)[C@H](C(C)C)NC(=O)[C@H](CC(C)C)NC(=O)[C@H](CC(N)=O)NC(=O)[C@@H]4CCCN4C(=O)[C@H](CCCNC(=N)N)NC(=O)[C@H](CSSC[C@H](NC(=O)[C@@H](N)CC(=O)O)C(=O)N[C@@H](CC(C)C)C(=O)NCC(=O)N[C@@H](Cc4ccccc4)C(=O)N[C@@H](CCSC)C(=O)N[C@@H](CCCNC(=N)N)C(=O)N[C@@H](CCCCN)C(=O)N2)NC(=O)[C@H](CSSC[C@@H](C(=O)N[C@@H](CCCCN)C(=O)N[C@@H](Cc2ccc(O)cc2)C(=O)N[C@@H](CCC(=O)O)C(=O)N[C@@H](Cc2ccccc2)C(N)=O)NC(=O)[C@H](Cc2c[nH]c4ccccc24)NC(=O)[C@H](CCCCN)NC(=O)[C@H](Cc2cnc[nH]2)NC(=O)[C@H]([C@@H](C)O)NC(=O)[C@H](CCCNC(=N)N)NC(=O)[C@H](CO)NC3=O)NC(=O)[C@H](CCCCN)NC(=O)[C@H](CC(=O)O)NC(=O)[C@H](CC(N)=O)NC(=O)[C@H](CC(=O)O)NC(=O)[C@@H]2CCCN2C1=O` [SEQ ID NO: 33, [Glu33]GpTx-1] (H-DCLGFMRKCIPDNDKCCRPNLVCSRTHKWCKYEF-NH2; disulfide 2-17, 9-23, 16-30), for which the IC50 on hNav1.3 (Table 26, use, […]) is 0.39 µM; on hNav1.5 (Table 26, IonWorks Quattro, use, […], read-out: IWQ Use Nav1.5), 11.5 µM.

Regarding `CC[C@H](C)[C@@H]1NC(=O)[C@@H]2CSSC[C@@H]3NC(=O)[C@H](C(C)C)NC(=O)[C@H](CC(C)C)NC(=O)[C@H](CC(N)=O)NC(=O)[C@@H]4CCCN4C(=O)[C@H](CCCNC(=N)N)NC(=O)[C@H](CSSC[C@H](NC(=O)[C@@H](N)CCCCN)C(=O)N[C@@H](CC(C)C)C(=O)NCC(=O)N[C@@H](Cc4ccccc4)C(=O)N[C@@H](CCSC)C(=O)N[C@@H](CCCNC(=N)N)C(=O)N[C@@H](CCCCN)C(=O)N2)NC(=O)[C@H](CSSC[C@@H](C(=O)N[C@@H](CCCCN)C(=O)N[C@@H](Cc2ccc(O)cc2)C(=O)N[C@H](C(=O)N[C@@H](Cc2ccccc2)C(N)=O)C(C)C)NC(=O)[C@H](Cc2c[nH]c4ccccc24)NC(=O)[C@H](CCCCN)NC(=O)[C@H](Cc2cnc[nH]2)NC(=O)[C@H]([C@@H](C)O)NC(=O)[C@H](CCCNC(=N)N)NC(=O)[C@H](CO)NC3=O)NC(=O)[C@H](CCCCN)NC(=O)[C@H](CC(=O)O)NC(=O)[C@H](CC(N)=O)NC(=O)[C@H](CC(=O)O)NC(=O)[C@@H]2CCCN2C1=O` [SEQ ID NO: 37] (H-KCLGFMRKCIPDNDKCCRPNLVCSRTHKWCKYVF-NH2; disulfide 2-17, 9-23, 16-30), the IC50 at hNav1.3 (setting [1]) stood at 0.07 µM; against hNav1.5 (IWQ Use Nav1.5) it was 7.29 µM.

In the case of `CC[C@H](C)[C@@H]1NC(=O)[C@@H]2CSSC[C@@H]3NC(=O)[C@H](C(C)C)NC(=O)[C@H](CC(C)C)NC(=O)[C@H](CC(N)=O)NC(=O)[C@@H]4CCCN4C(=O)[C@H](CCCNC(=N)N)NC(=O)[C@H](CSSC[C@H](NC(=O)[C@@H](N)CCCNC(=N)N)C(=O)N[C@@H](CC(C)C)C(=O)NCC(=O)N[C@@H](Cc4ccccc4)C(=O)N[C@@H](CCSC)C(=O)N[C@@H](CCCNC(=N)N)C(=O)N[C@@H](CCCCN)C(=O)N2)NC(=O)[C@H](CSSC[C@@H](C(=O)N[C@@H](CCCCN)C(=O)N[C@@H](Cc2ccc(O)cc2)C(=O)N[C@H](C(=O)N[C@@H](Cc2ccccc2)C(N)=O)C(C)C)NC(=O)[C@H](Cc2c[nH]c4ccccc24)NC(=O)[C@H](CCCCN)NC(=O)[C@H](Cc2cnc[nH]2)NC(=O)[C@H]([C@@H](C)O)NC(=O)[C@H](CCCNC(=N)N)NC(=O)[C@H](CO)NC3=O)NC(=O)[C@H](CCCCN)NC(=O)[C@H](CC(=O)O)NC(=O)[C@H](CC(N)=O)NC(=O)[C@H](CC(=O)O)NC(=O)[C@@H]2CCCN2C1=O` [SEQ ID NO: 62] (H-RCLGFMRKCIPDNDKCCRPNLVCSRTHKWCKYVF-NH2; disulfide 2-17, 9-23, 16-30), the IC50 at hNav1.3 (setting [1]) came out at 0.1 µM; at hNav1.5 (setting [2]), 8.78 µM.

`CC[C@H](C)[C@@H]1NC(=O)[C@@H]2CSSC[C@@H]3NC(=O)[C@H](C(C)C)NC(=O)[C@H](CC(C)C)NC(=O)[C@H](CC(N)=O)NC(=O)[C@@H]4CCCN4C(=O)[C@H](CCCNC(=N)N)NC(=O)[C@H](CSSC[C@H](NC(=O)[C@@H](N)CC(=O)O)C(=O)N[C@@H](CC(C)C)C(=O)NCC(=O)N[C@@H](Cc4ccccc4)C(=O)N[C@@H](CCSC)C(=O)N[C@@H](CCCNC(=N)N)C(=O)N[C@@H](CCCCN)C(=O)N2)NC(=O)[C@H](CSSC[C@@H](C(=O)N[C@@H](CCCCN)C(=O)N[C@@H](Cc2ccc(O)cc2)C(=O)N[C@H](C(=O)N[C@@H](Cc2ccccc2)C(N)=O)C(C)C)NC(=O)[C@H](Cc2cccc4ccccc24)NC(=O)[C@H](CCCCN)NC(=O)[C@H](Cc2cnc[nH]2)NC(=O)[C@H]([C@@H](C)O)NC(=O)[C@H](CCCNC(=N)N)NC(=O)[C@H](CO)NC3=O)NC(=O)[C@H](CCCCN)NC(=O)[C@H](CC(=O)O)NC(=O)[C@H](CC(N)=O)NC(=O)[C@H](CC(=O)O)NC(=O)[C@@H]2CCCN2C1=O` [SEQ ID NO: 79, [1-Nal29]GpTx-1] (H-DCLGFMRKCIPDNDKCCRPNLVCSRTHK[1Nal]CKYVF-NH2; disulfide 2-17, 9-23, 16-30): the IC50 on hNav1.3 (Table 24, use, […]) was 1.55 µM; on hNav1.5 (Table 24, IonWorks Quattro, use, […], read-out: IWQ Use Nav1.5), 9.25 µM.
